The values that follow come from paper PMC6627744, “A Tiny Change Makes a Big Difference in the Anti-Parasitic Activities of an HDAC Inhibitor” (International Journal of Molecular Sciences, 2019).

pIC50: −log10 of the molar value. Where two headings read alike, the source gives them in different places.

The test system of test [1] is T. gondii. The test is described as follows: Anti-T. gondii activity in infected HFF monolayers, strain not given. The class given is cell-based, Toxoplasma gondii. The procedure:
(§1) Confluent Human Foreskin Fibroblast (HFF) monolayers were infected with YFP-type I Rh kindly provided by B. Striepen or Tomato-type II Pru kindly provided by Professor N. Blanchard (Toulouse), at 5 × 10^4 parasites per well. They were then centrifuged for 30 s at 250 g and incubated for 30 min in a water bath at 37 °C to allow invasion. The wells were washed three times with PBS to eliminate extracellular parasites, and the drugs were added at concentrations ranging from 0.01 to 3.0 μM. After incubation for 24 h at 37 °C in a humidified atmosphere containing 5% CO2, the cells were fixed in 2.5% methanol-free formaldehyde (Tebu-bio, Le Perray-en-Yvelines, France)/PBS for 30 min at room temperature. Nuclei were stained with Hoechst 33258 (2 µg/mL, Molecular Probes) for 20 min and washed three times with water. The number of infected cells, i.e., cells harboring a parasitophorous vacuole (see supplementary data S3 for an example), and the number of parasites per vacuole were determined using an Olympus ScanR microscope (×20 objective) and ScanR software. The parasitic index in % compared to the control was calculated as follows: [Parasitic index (PI) = ((number of parasite/100 cells in treated wells) × (% of infected macrophage in treated well)/(number of parasite/100 cells in untreated wells) × (% of infected macrophage in untreated wells)) × 100].

The target in test [2] is T1, recombinant HDAC1 enzyme (Homo sapiens, UniProt Q13547).
T1 construct: purchased Active Motif
Briefly: HDAC inhibition, recombinant HDAC1 (fluorometric HDAC assay kit). The class given is biochemical. The following applies: Figure 1B. The procedure:
(§2) The HDACi effect against HeLa nuclear extracts and recombinant proteins were measured using a fluorometric HDAC assay kit (Active Motif, La Hulpe, Belgium) according to the manufacturer’s instructions. Briefly, 30 μL of HeLa nuclear extract (Active Motif, Belgium) or HDAC 1 recombinant protein (Active Motif, Belgium) were mixed with 5 μL of a 10× compound and 10 μL of assay buffer. A positive control, containing trichostatin A at a final concentration of 2 μM, was analyzed for each independent experiment. A fluorogenic substrate (10 μL) was added, and the reaction was allowed to proceed for 30 min at room temperature and then stopped by the addition of a developer containing trichostatin A. The fluorescence was monitored after 30 min at excitation and emission wavelengths of 360 and 460 nm, respectively.

Test [3] has as its system HeLa cell nuclear extract, which contains mainly HDACs 1, 2, 6, and 8. Briefly: HDAC inhibition, HeLa nuclear extract (fluorometric HDAC assay kit). The class given is biochemical, human. The following applies: HeLa nuclear extracts; ratio of IC50 versus 363. The method, then: as §2
For test [4], the system named is RH type I strain of T. gondii. Further details: method as in PMID 29414107. The note with it: cited from earlier work.
The test system of test [5] is Pru type II strain of T. gondii. Briefly: Anti-T. gondii activity in infected HFF monolayers, type II strain. The class given is cell-based. The note with it: Toxoplasma gondii, 24 h, read-out: IC50, inhibition of T. gondii type II strain. The method, then: as §1
For test [6] the test system is unchanged. Further details: method as in PMID 29414107. The note with it: read-out: IC50, inhibition of T. gondii type II strain; cited from earlier work.
Test [7] relates to RH type I strain of T. gondii. The test is described as follows: Anti-T. gondii activity in infected HFF monolayers, type I strain. The test is classed as cell-based, Toxoplasma gondii. The procedure:
as §1

T1 sequence (Q13547 whole entry): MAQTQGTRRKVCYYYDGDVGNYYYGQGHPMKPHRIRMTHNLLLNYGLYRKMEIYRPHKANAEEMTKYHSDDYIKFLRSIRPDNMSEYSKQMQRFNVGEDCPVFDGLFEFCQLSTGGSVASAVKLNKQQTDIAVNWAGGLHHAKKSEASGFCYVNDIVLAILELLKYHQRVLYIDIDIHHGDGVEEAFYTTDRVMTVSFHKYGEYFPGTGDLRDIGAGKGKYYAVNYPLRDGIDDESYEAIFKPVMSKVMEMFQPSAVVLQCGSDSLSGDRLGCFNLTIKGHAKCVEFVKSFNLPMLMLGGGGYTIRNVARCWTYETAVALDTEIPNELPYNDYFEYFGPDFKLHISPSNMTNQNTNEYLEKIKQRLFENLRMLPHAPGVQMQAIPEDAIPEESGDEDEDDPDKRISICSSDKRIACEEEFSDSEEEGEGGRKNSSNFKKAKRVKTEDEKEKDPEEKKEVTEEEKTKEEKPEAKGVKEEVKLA

The pIC50 is the negative decadic logarithm of the IC50, by convention in mol/L. On to `CCc1nc(N)nc(N)c1-c1ccc(Cl)cc1` [Pyrimethamine, reference compound], for which the pIC50 in test [1] (Toxoplasma gondii, positive control, strain not stated) was 6.34.

Take `COc1ccccc1CNC(=O)c1ccc(C(=O)NO)cc1` [Compound D16, 1-N-hydroxy-4-N-[(2-methoxyphenyl)methyl]benzene-1,4-dicarboxamide]: in test [1] (even at concentrations higher than 1000 nM, RH type I and Pru type II strains (Figure 1C)), the anti-parasitic activity entry is reported as “No anti-parasitic activity”. Besides, the “potency on deacetylase activity of recombinant HDAC1, compared to 363” value in test [2] is “lower potency”. Besides, the “fold less efficient in HDACi activity compared to 363” value in test [3] was found to be 13 fold.

For `COc1cccc(CC(=O)Nc2ccc(C(=O)NO)cc2)c1` [Compound 363, N-hydroxy-4-[2-(3-methoxyphenyl)acetamido]benzamide], the pIC50 in test [4] (type I strain, read-out: IC50, inhibition of T. gondii type I strain) was 6.46; in test [5] it was 6.07; in test [6], 5.64; in test [7] (Toxoplasma gondii, type I (RH) strain, HFF, 24 h, read-out: IC50, inhibition of T. gondii type I strain), 6.82. For the same compound, the “fold higher susceptibility of type I strains than type II strains” value in test [4] (type I versus type II) is reported as 6 fold; in test [7] (type I versus type II, this work), 5.5 fold.
